From patent US20260209260A1, “VECTORIZED NHC IRIDIUM(III) COMPLEXES AND USE THEREOF IN PHOTODYNAMIC THERAPY AND/OR DIAGNOSTIC” (CENTRE NATIONAL DE LA RECHERCHE SCIENTIFIQUE, priority 2022, published 2026)
Where two headings read alike, the source gives them in different places.

Key:
Assay type in all cases: cell-based, Human
Hela cervix cancer cells = test: Cell viability assay (MTT), dark and blue light; settings: for SI (vs MC3T3) HeLa Blue: blue light 458 nm; for Photosensitizing index (PI) HeLa: dark vs blue light 458 nm
Procedure, shortened: (§1)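 Seeded cells attached overnight, were exposed to complexes for 8 h, received 10 min of 458 nm blue light (9.6 W LED array), then stayed in the dark until 72 h; parallel plates were kept dark throughout. MTT for 3 to 4 h, DMSO solubilization, absorbance at 570 nm.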

[1] = test system: Scaber bladder cancer cells; test: Cell viability assay (MTT), dark and blue light; settings: for Photosensitizing index (PI) Scaber: dark vs blue light 458 nm; for SI (vs NIH-3T3) Scaber Blue: blue light 458 nm
Procedure, shortened: as §1

MCF7 breast cancer cells = test: Cell viability assay (MTT), dark and blue light; settings: for Photosensitizing index (PI) MCF7: dark vs blue light 458 nm
Procedure, shortened: as §1

[2] = test system: MGHU3 bladder cancer cells; test: Cell viability assay (MTT), dark and blue light; settings: for Photosensitizing index (PI) MGHU3: dark vs blue light 458 nm
Procedure, shortened: as §1

[3] = test system: cancer cells (all tumor cell lines tested); test: Cell viability assay (MTT), summary over the cancer cell lines tested; settings: for PI values, mean over cancer cells / PI values, median over cancer cells: dark vs blue light 458 nm
Procedure: Cells were grown in humidified incubators at 37° C. in 5% CO2. Murine MC3T3 osteoblast and NIH-3T3 fibroblast cells-used as non-tumor cell models-were cultured in a-MEM medium and DMEM medium supplemented with 10% fetal bovine serum (FBS) and 1% Penicillin/Streptomycin (P/S) antibiotics, respectively. Human T24 bladder, MGHU3 bladder, Scaber bladder, A549 lung, MCF7 breast, MiaPaCa2 pancreas cancer cells were cultured in DMEM medium supplemented with 10% FBS and 1% P/S antibiotics. […] Human Hela cervix and HepG2 liver cancer cells were cultured EMEM medium supplemented with 10% FBS and 1% P/S antibiotics.
MTT reagent (3-(4,5-dimethylthiazol-2-yl)-2,5-diphenyltetrazolium bromide) was used to determine cell death as originally described by Mosmann. Briefly, cells were seeded from 5,000 to 10,000 cells/well in 24-well plates (1 mL) depending on the cell type and allowed to attach overnight. The complexes were prepared in DMSO. The concentration of the complexes was calculated based on the elemental composition of the complexes determined by the elemental analyses. All cell viability experiments were carried out with a fixed concentration of 0.1% (v/v) DMSO. After 72 h of treatment, cells were incubated at 37° C. and 5% CO2 with 25 μL of MTT solution (5 mg/ml; Sigma-Aldrich) in 24-well plates for 3 to 4 h. After solubilization with 500 μL of DMSO, formazan was quantified spectrophotometrically with a microplate reader at 570 nm absorbance (ClarioSTAR, BMG LabTech). […] All the results were calculated from data obtained in at least three independent experiments performed in triplicate.
Two sets of experiments were conducted in parallel for each complex to be studied:
1. The cells were incubated with the different complexes (in the dark) for 72 h.
2. The cells were incubated for 8 h with the different complexes (in the dark), then irradiated for 10 min, followed by an incubation in the dark up to 72 h.

[4] = 8 h in the dark, blue light 458 nm 10 min, then dark up to 72 h, read-out: GI50 HeLa Blue
[5] = in the dark, 72 h, read-out: GI50 HeLa Dark
[6] = 8 h in the dark, blue light 458 nm 10 min, then dark up to 72 h, read-out: GI50 Scaber Blue
[7] = in the dark, 72 h, read-out: GI50 Scaber Dark
[8] = 8 h in the dark, blue light 458 nm 10 min, then dark up to 72 h, read-out: GI50 MCF7 Blue
[9] = in the dark, 72 h, read-out: GI50 MCF7 Dark
[10] = 8 h in the dark, blue light 458 nm 10 min, then dark up to 72 h, read-out: GI50 MGHU3 Blue
[11] = in the dark, 72 h, read-out: GI50 MGHU3 Dark

SMILES: COC(=O)c1ccc2[n+](c1)[Ir-3]13([c]4ccccc4-2)([c]2ccccc2-c2ccc(C(=O)OC)c[n+]21)[c]1n(CCCNC(=O)CCCC[C@@H]2SC[C@@H]4NC(=O)N[C@@H]42)cc[n+]1-c1cccc[n+]13.F[P-](F)(F)(F)(F)F [I-e]
- GI50 (Hela cervix cancer cells; [4]): 59 µM
- SI (vs MC3T3) HeLa Blue (Hela cervix cancer cells): 0.7
- SI (vs MC3T3) HeLa Dark (Hela cervix cancer cells): 0.3
- SI (vs NIH-3T3) HeLa Dark (Hela cervix cancer cells): >1.1
- Photosensitizing index (PI) HeLa (Hela cervix cancer cells): 3.7
- GI50 (Hela cervix cancer cells; [5]): 221 µM
- GI50 [1, 6]: 14.7 µM
- SI (vs MC3T3) Scaber Dark [1]: <1
- SI (vs NIH-3T3) Scaber Dark [1]: >2.5
- Photosensitizing index (PI) Scaber [1]: >6.8
- GI50 [1, 7]: > 100 µM
- GI50 (MCF7 breast cancer cells; [8]): 12.2 µM
- SI (vs NIH-3T3) MCF7 Blue (MCF7 breast cancer cells; blue light 458 nm): 11.1
- SI (vs MC3T3) MCF7 Dark (MCF7 breast cancer cells): 0.4
- SI (vs NIH-3T3) MCF7 Dark (MCF7 breast cancer cells): >1.7
- Photosensitizing index (PI) MCF7 (MCF7 breast cancer cells): 11.9
- GI50 (MCF7 breast cancer cells; [9]): 145 µM
- GI50 [2, 10]: 17.8 µM
- SI (vs MC3T3) MGHU3 Blue ([2]; blue light 458 nm): 2.3
- SI (vs NIH-3T3) MGHU3 Blue ([2]; blue light 458 nm): 7.8
- SI (vs MC3T3) MGHU3 Dark ([2]; dark): <1
- SI (vs NIH-3T3) MGHU3 Dark ([2]; dark): >2.5
- Photosensitizing index (PI) MGHU3 [2]: >5.6
- GI50 [2, 11]: > 100 µM
- PI values, mean over cancer cells [3]: 8.4 fold
- PI values, median over cancer cells [3]: 6.2 fold

SMILES: F[P-](F)(F)(F)(F)F.O=C(CCCC[C@@H]1SC[C@@H]2NC(=O)N[C@@H]21)NCCCn1cc[n+]2[c]1[Ir-3]13([c]4ccccc4-c4ccc5ccccc5[n+]41)([c]1ccccc1-c1ccc4ccccc4[n+]13)[n+]1ccccc1-2 [I-g]
- GI50 (Hela cervix cancer cells; [4]): 10.8 µM
- SI (vs MC3T3) HeLa Dark (Hela cervix cancer cells): 1.2
- Photosensitizing index (PI) HeLa (Hela cervix cancer cells): 4.1
- GI50 (Hela cervix cancer cells; [5]): 44.3 µM
- GI50 [1, 6]: 2.5 µM
- SI (vs NIH-3T3) Scaber Blue [1]: 24.7
- SI (vs MC3T3) Scaber Dark [1]: 3.9
- Photosensitizing index (PI) Scaber [1]: 5.6
- GI50 [1, 7]: 14.1 µM
- GI50 (MCF7 breast cancer cells; [8]): 2.2 µM
- SI (vs MC3T3) MCF7 Blue (MCF7 breast cancer cells; blue light 458 nm): 14.3
- SI (vs NIH-3T3) MCF7 Blue (MCF7 breast cancer cells; blue light 458 nm): 28.0
- SI (vs MC3T3) MCF7 Dark (MCF7 breast cancer cells): 4.0
- Photosensitizing index (PI) MCF7 (MCF7 breast cancer cells): 6.3
- GI50 (MCF7 breast cancer cells; [9]): 13.8 µM
- GI50 [2, 10]: 4.3 µM
- SI (vs NIH-3T3) MGHU3 Blue ([2]; blue light 458 nm): 14.3
- SI (vs MC3T3) MGHU3 Dark ([2]; dark): 2.2
- Photosensitizing index (PI) MGHU3 [2]: 5.9
- GI50 [2, 11]: 25.4 µM
- selectivity for cancer cells over non-tumor cells, in words [3]: most selective effects under irradiated conditions
- PI values, mean over cancer cells [3]: 7.5 fold
- PI values, median over cancer cells [3]: 6.0 fold

SMILES: F[P-](F)(F)(F)(F)F.O=C(CCCC[C@@H]1SC[C@@H]2NC(=O)N[C@@H]21)NCCCn1cc[n+]2[c]1[Ir-3]13([c]4ccccc4-c4c5ccccc5cc[n+]41)([c]1ccccc1-c1c4ccccc4cc[n+]13)[n+]1ccccc1-2 [I-h]
- GI50 (Hela cervix cancer cells; [4]): 2.86 µM
- SI (vs MC3T3) HeLa Blue (Hela cervix cancer cells): 1.7
- SI (vs MC3T3) HeLa Dark (Hela cervix cancer cells): 1.0
- SI (vs NIH-3T3) HeLa Dark (Hela cervix cancer cells): 2.4
- Photosensitizing index (PI) HeLa (Hela cervix cancer cells): 14.6
- GI50 (Hela cervix cancer cells; [5]): 41.8 µM
- GI50 [1, 6]: 1 µM
- SI (vs NIH-3T3) Scaber Blue [1]: 10.4
- SI (vs MC3T3) Scaber Dark [1]: 1.7
- SI (vs NIH-3T3) Scaber Dark [1]: 4.1
- Photosensitizing index (PI) Scaber [1]: 24.8
- GI50 [1, 7]: 24.8 µM
- GI50 (MCF7 breast cancer cells; [8]): 0.99 µM
- SI (vs NIH-3T3) MCF7 Dark (MCF7 breast cancer cells): 8.6
- Photosensitizing index (PI) MCF7 (MCF7 breast cancer cells): 12.0
- GI50 (MCF7 breast cancer cells; [9]): 11.9 µM
- GI50 [2, 10]: 1.6 µM
- SI (vs MC3T3) MGHU3 Dark ([2]; dark): 1.8
- Photosensitizing index (PI) MGHU3 [2]: 16.7
- GI50 [2, 11]: 26.7 µM
- PI values, mean over cancer cells [3]: 19.0 fold
- PI values, median over cancer cells [3]: 19.3 fold
